Reference: PubChem BioAssay (NCI)
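48-hour exposure; five concentrations; linearly interpolated endpoints. At the GI50, growth is halved. At the TGI there is no net growth.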

Experiments:
Assay in all cases: NCI tumour cell line growth inhibition, 48 h
786-0 renal = test system: 786-0 renal
A549 NSCLC = test system: A549 NSCLC
ACHN renal = test system: ACHN renal
CAKI-1 renal = test system: CAKI-1 renal
CCRF-CEM leukemia = test system: CCRF-CEM leukemia
COLO 205 colon = test system: COLO 205 colon
DLD-1 colon = test system: DLD-1 colon
DMS 114 small cell lung = test system: DMS 114 small cell lung
DMS 273 small cell lung = test system: DMS 273 small cell lung
EKVX NSCLC = test system: EKVX NSCLC
HCC-2998 colon = test system: HCC-2998 colon
HCT-116 colon = test system: HCT-116 colon
HCT-15 colon = test system: HCT-15 colon
HL-60(TB) leukemia = test system: HL-60(TB) leukemia
HOP-18 NSCLC = test system: HOP-18 NSCLC
HOP-62 NSCLC = test system: HOP-62 NSCLC
HOP-92 NSCLC = test system: HOP-92 NSCLC
HT29 colon = test system: HT29 colon
IGROV1 ovarian = test system: IGROV1 ovarian
K-562 leukemia = test system: K-562 leukemia
KM12 colon = test system: KM12 colon
KM20L2 colon = test system: KM20L2 colon
LXFL 529 NSCLC = test system: LXFL 529 NSCLC
M14 melanoma = test system: M14 melanoma
MALME-3M melanoma = test system: MALME-3M melanoma
MOLT-4 leukemia = test system: MOLT-4 leukemia
NCI-H226 lung = test system: NCI-H226 lung
NCI-H23 lung = test system: NCI-H23 lung
NCI-H460 lung = test system: NCI-H460 lung
NCI-H522 lung = test system: NCI-H522 lung
OVCAR-3 ovarian = test system: OVCAR-3 ovarian
OVCAR-4 ovarian = test system: OVCAR-4 ovarian
OVCAR-5 ovarian = test system: OVCAR-5 ovarian
OVCAR-8 ovarian = test system: OVCAR-8 ovarian
RPMI-8226 leukemia = test system: RPMI-8226 leukemia
RXF 393 renal = test system: RXF 393 renal
SF-268 CNS = test system: SF-268 CNS
SF-295 CNS = test system: SF-295 CNS
SF-539 CNS = test system: SF-539 CNS
SK-MEL-2 melanoma = test system: SK-MEL-2 melanoma
SK-MEL-28 melanoma = test system: SK-MEL-28 melanoma
SK-MEL-5 melanoma = test system: SK-MEL-5 melanoma
SK-OV-3 ovarian = test system: SK-OV-3 ovarian
SN12C renal = test system: SN12C renal
SNB-19 CNS = test system: SNB-19 CNS
SNB-75 CNS = test system: SNB-75 CNS
SR leukemia = test system: SR leukemia
SW-620 colon = test system: SW-620 colon
TK-10 renal = test system: TK-10 renal
U251 CNS = test system: U251 CNS
UACC-257 melanoma = test system: UACC-257 melanoma
UACC-62 melanoma = test system: UACC-62 melanoma
UO-31 renal = test system: UO-31 renal
XF 498 CNS = test system: XF 498 CNS

In the case of `CC1=CC(=O)c2[nH]c3ccccc3c2C1=O`, the GI50 (786-0 renal) is reported as 4.27 µM, the TGI (786-0 renal) is reported as 7.71 µM and the TGI (A549 NSCLC) is reported as over 25 µM. The GI50 (ACHN renal) was 4.14 µM, the TGI (ACHN renal) was 7.54 µM and the GI50 (CAKI-1 renal) was 14.4 µM. The TGI (CAKI-1 renal) was over 25 µM, the GI50 (CCRF-CEM leukemia) was 3.33 µM and the TGI (CCRF-CEM leukemia) was 10.6 µM. It also gave a GI50 (COLO 205 colon) of 4.12 µM, a TGI (COLO 205 colon) of 7.55 µM and a GI50 (DLD-1 colon) of 5.06 µM. For the same compound, the TGI (DLD-1 colon) was 8.82 µM, the TGI (DMS 114 small cell lung) was 7.82 µM and the GI50 (DMS 273 small cell lung) was 4.26 µM. For the same compound, the TGI (DMS 273 small cell lung) was 7.83 µM, the GI50 (EKVX NSCLC) was 4.04 µM and the TGI (EKVX NSCLC) was 8.48 µM. The GI50 (HCC-2998 colon) was 7.01 µM, the TGI (HCC-2998 colon) was 24 µM and the GI50 (HCT-116 colon) was 4.44 µM. It also gave a TGI (HCT-116 colon) of 7.93 µM, a GI50 (HCT-15 colon) of 4.2 µM and a TGI (HCT-15 colon) of 7.61 µM. It also gave a GI50 (HL-60(TB) leukemia) of 4.06 µM, a TGI (HL-60(TB) leukemia) of 9.85 µM and a GI50 (HOP-18 NSCLC) of 3.35 µM. For the same compound, the TGI (HOP-18 NSCLC) was 7.5 µM, the TGI (HOP-62 NSCLC) was over 25 µM and the GI50 (HOP-92 NSCLC) was 3.98 µM. It also gave a TGI (HOP-92 NSCLC) of 7.36 µM, a GI50 (HT29 colon) of 17.6 µM and a TGI (HT29 colon) of over 25 µM. It also gave a GI50 (IGROV1 ovarian) of 6.63 µM, a TGI (IGROV1 ovarian) of 17.1 µM and a GI50 (K-562 leukemia) of 5.56 µM. The TGI (K-562 leukemia) was 14 µM, the GI50 (KM12 colon) was 4.4 µM and the TGI (KM12 colon) was 9.01 µM. The TGI (KM20L2 colon) was over 25 µM, the GI50 (LXFL 529 NSCLC) was 4.22 µM and the TGI (LXFL 529 NSCLC) was 7.63 µM. The GI50 (M14 melanoma) was 4.21 µM, the TGI (M14 melanoma) was 7.62 µM and the GI50 (MALME-3M melanoma) was 4.85 µM. For the same compound, the TGI (MALME-3M melanoma) was 8.54 µM, the GI50 (MOLT-4 leukemia) was 5.36 µM and the TGI (MOLT-4 leukemia) was 15.9 µM. The GI50 (NCI-H226 lung) was 6.54 µM, the TGI (NCI-H226 lung) was 22.7 µM and the GI50 (NCI-H23 lung) was 3.69 µM. It also gave a TGI (NCI-H23 lung) of 7.28 µM, a GI50 (NCI-H460 lung) of 8.11 µM and a TGI (NCI-H460 lung) of over 25 µM. For the same compound, the GI50 (NCI-H522 lung) was 3.82 µM, the TGI (NCI-H522 lung) was 7.24 µM and the TGI (OVCAR-3 ovarian) was 8.02 µM. For the same compound, the TGI (OVCAR-4 ovarian) was 7.58 µM, the TGI (OVCAR-5 ovarian) was 12.2 µM and the TGI (OVCAR-8 ovarian) was 7.45 µM. It also gave a TGI (RPMI-8226 leukemia) of 14.7 µM, a GI50 (RXF 393 renal) of 3.47 µM and a TGI (RXF 393 renal) of 6.74 µM. For the same compound, the GI50 (SF-268 CNS) was 4.36 µM, the TGI (SF-268 CNS) was 7.89 µM and the GI50 (SF-295 CNS) was 4.32 µM. For the same compound, the TGI (SF-295 CNS) was 7.93 µM, the GI50 (SF-539 CNS) was 4.28 µM and the TGI (SF-539 CNS) was 7.79 µM. It also gave a GI50 (SK-MEL-2 melanoma) of 5.37 µM, a TGI (SK-MEL-2 melanoma) of 13.8 µM and a GI50 (SK-MEL-28 melanoma) of 4.47 µM. For the same compound, the TGI (SK-MEL-28 melanoma) was 7.98 µM, the GI50 (SK-MEL-5 melanoma) was 4.22 µM and the TGI (SK-MEL-5 melanoma) was 7.66 µM. It also gave a GI50 (SK-OV-3 ovarian) of 21.1 µM, a TGI (SK-OV-3 ovarian) of over 25 µM and a GI50 (SN12C renal) of 4.59 µM. It also gave a TGI (SN12C renal) of 8.17 µM, a TGI (SNB-19 CNS) of over 25 µM and a GI50 (SNB-75 CNS) of 4.36 µM. It also gave a TGI (SNB-75 CNS) of 8.28 µM, a GI50 (SR leukemia) of 5.71 µM and a TGI (SR leukemia) of 16.7 µM. For the same compound, the GI50 (SW-620 colon) was 3.94 µM, the TGI (SW-620 colon) was 7.65 µM and the GI50 (TK-10 renal) was 5.04 µM. For the same compound, the TGI (TK-10 renal) was 9.24 µM, the GI50 (U251 CNS) was 15.4 µM and the TGI (U251 CNS) was over 25 µM. For the same compound, the GI50 (UACC-257 melanoma) was 4.57 µM, the TGI (UACC-257 melanoma) was 8.58 µM and the GI50 (UACC-62 melanoma) was 4.21 µM. It also gave a TGI (UACC-62 melanoma) of 7.67 µM, a GI50 (UO-31 renal) of 4 µM and a TGI (UO-31 renal) of 7.4 µM. The GI50 (XF 498 CNS) was 4.38 µM and the TGI (XF 498 CNS) was 7.99 µM.
